Results published in patent US20160311791A1, “NOVEL TRICYCLIC CALCIUM SENSING RECEPTOR ANTOGONISTS FOR THE TREATMENT OF OSTEOPOSOSIS” (MERCK SHARP & DOHME CORP., priority 2013, published 2016).

biological target: T1, human CaSR (Homo sapiens, UniProt P41180); assay: CaSR FLIPR assay (calcilytic activity); format: cell-based; parameters: expressed in transfected cells; settings: HEK293 cells stably expressing human recombinant CaSR; 1 mM CaCl2 agonist; Tables 1-24; read-out: FLIPR ASSAY IC50
T1 sequence (P41180 20-1078): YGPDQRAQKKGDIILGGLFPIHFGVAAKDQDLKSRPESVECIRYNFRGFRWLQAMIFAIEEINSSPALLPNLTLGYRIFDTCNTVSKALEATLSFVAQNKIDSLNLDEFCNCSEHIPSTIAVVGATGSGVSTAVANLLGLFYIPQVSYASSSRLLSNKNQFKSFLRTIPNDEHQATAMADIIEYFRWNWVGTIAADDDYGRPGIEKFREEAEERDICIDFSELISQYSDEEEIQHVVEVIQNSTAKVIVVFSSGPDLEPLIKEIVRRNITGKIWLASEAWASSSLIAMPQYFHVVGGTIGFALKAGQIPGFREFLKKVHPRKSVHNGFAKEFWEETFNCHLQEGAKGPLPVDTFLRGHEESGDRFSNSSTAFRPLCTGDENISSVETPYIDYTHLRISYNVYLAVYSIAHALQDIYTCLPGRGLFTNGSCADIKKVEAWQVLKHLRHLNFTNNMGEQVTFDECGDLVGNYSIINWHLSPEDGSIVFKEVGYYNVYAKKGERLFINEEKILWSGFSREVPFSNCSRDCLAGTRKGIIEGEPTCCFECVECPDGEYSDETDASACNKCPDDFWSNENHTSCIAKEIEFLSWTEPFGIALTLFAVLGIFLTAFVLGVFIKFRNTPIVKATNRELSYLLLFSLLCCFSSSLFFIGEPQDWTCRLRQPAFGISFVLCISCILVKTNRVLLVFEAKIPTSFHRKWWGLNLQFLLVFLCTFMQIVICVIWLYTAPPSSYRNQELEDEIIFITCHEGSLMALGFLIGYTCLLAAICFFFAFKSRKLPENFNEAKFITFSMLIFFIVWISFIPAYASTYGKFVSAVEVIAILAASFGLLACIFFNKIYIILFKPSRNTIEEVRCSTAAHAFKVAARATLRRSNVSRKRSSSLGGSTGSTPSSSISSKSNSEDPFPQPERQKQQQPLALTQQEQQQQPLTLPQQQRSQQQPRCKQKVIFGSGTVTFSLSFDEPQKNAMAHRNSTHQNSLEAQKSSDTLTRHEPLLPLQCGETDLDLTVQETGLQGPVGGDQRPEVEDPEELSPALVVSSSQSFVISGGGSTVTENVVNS
Method: Procedures for CaSR FLIPR Assay
Calcilytic activity of the compound is measured in HEK293 cells stably expressing human recombinant CaSR (HEK-CaSR) using a FLIPR^TETRA device (Molecular Devices, Sunnyvale, Calif.) according to the manufacturer's directions. […] On the day of the assay, one vial of FLIPR Calcium 4 Assay Kit reagent Component A was equilibrated to room temperature. The content of the Component A vial was diluted by adding 10 ml dilution buffer (2×loading dye). The sample was mixed by vortexing (1-2 minutes) until the contents of the vial dissolved. The Component A vial mixture was diluted with 10 ml dilution buffer. Media was aspirated from the cells and 80 μl of loading buffer was added to each well. Plates were incubated for 1 hour at 37° C. and then placed at room temperature for 10 minutes. A two-stage method of generating 10-point serial dilutions was used. Compound was serially diluted in 100% DMSO (10 point, 3-fold dilution of each compound from 2 mM in 100% DMSO). 3 μl of serially diluted compound was transferred into a second assay microplate that contained 97 μl of TETRA dilution buffer (20 mM HEPES pH7.4, 1×HBSS without Ca and Mg, 0.4 mM CaCl2, 0.4 mM MgSO4, 0.5 mM MgCl2) to create the intermediate dilution plate. After reading the base line, the compounds in 0.5% DMSO in dilution buffer were added to their respective wells as 20 μl aliquots at 6×the final drug concentration. The fluorescence signals were then read. Subsequently, 20 μl of 3.6 mM of CaCl2 agonist (1 mM final concentration) was added to each well. For background, 20 μl of TETRA dilution buffer was added instead. The protocol consisted of a pre-addition read of 10 frames (10×1 frame/sec), a post 1st addition read of 100 frames (60×1 frame/sec, 40×1 frame/3 sec), pause 3 min, a post 2nd addition read of 100 frames (60×1 frame/sec, 40×1 frame/3 sec) on a FLIPR^TETRA Plate Reader.

| IC50 [nM] | Structure (SMILES) |
| --- | --- |
| 38 | COc1ccc(CC(C)(C)NC[C@@H](O)CO[C@H](C)c2cccc3c2[C@@H]2[C@H](O3)[C@H]2C(=O)O)c(Cl)c1 [Example 5-16] |
| 150 | C[C@@H](OC[C@H](O)CNC(C)(C)CCSc1ccccc1)c1cccc2c1[C@@H]1[C@H](O2)[C@H]1C(=O)O [Example 5-17] |
| 53 | CSc1ccc(CC(C)(C)NC[C@@H](O)CO[C@H](C)c2cccc3c2[C@@H]2[C@H](O3)[C@H]2C(=O)O)cc1Cl [Example 5-18] |
| 97 | CSc1ccc(CC(C)(C)NC[C@@H](O)CO[C@H](C)c2cccc3c2[C@@H]2[C@H](O3)[C@H]2C(=O)O)cc1C [Example 5-19] |
| 130 | CCOC(=O)[C@@H]1[C@H]2Oc3cccc([C@@H](C)OC[C@H](O)CNC(C)(C)Cc4ccc5ccccc5c4)c3[C@H]21 [Example 5-20] |
| 30 | C[C@@H](OC[C@H](O)CNC(C)(C)Cc1ccc2ccccc2c1)c1cccc2c1[C@@H]1[C@H](O2)[C@H]1C(=O)NS(=O)(=O)C1(C)CC1 [Example 6-1] |
| 80 | C[C@@H](OC[C@H](O)CNC(C)(C)Cc1ccc2ccccc2c1)c1cccc2c1[C@H]1[C@@H](O2)[C@@H]1C(=O)O [Example 7-1] |
| 14 | Cc1ccc([C@@H](C)OC[C@H](O)CNC(C)(C)Cc2ccc3ccccc3c2)c2c1O[C@@H]1[C@@H](C(=O)O)[C@H]21 [Example 8-1] |
| 21 | Cc1ccc(CC(C)(C)NC[C@@H](O)CO[C@H](C)c2ccc(C)c3c2[C@@H]2[C@H](O3)[C@H]2C(=O)O)cc1F [Example 8-4] |
| 18 | Cc1ccc(CC(C)(C)NC[C@@H](O)CO[C@H](C)c2ccc(C)c3c2C2[C@H](O3)[C@H]2C(=O)O)cc1C (stereo partly drawn) [Example 8-5] |
| 96 | Cc1ccc([C@@H](C)OC[C@H](O)CNC(C)(C)Cc2cc3ccccc3s2)c2c1O[C@@H]1[C@@H](C(=O)O)[C@H]21 [Example 8-6] |
| 42 | Cc1ccc([C@@H](C)OC[C@H](O)CNC(C)(C)Cc2ccc3occc3c2)c2c1O[C@@H]1[C@@H](C(=O)O)[C@H]21 [Example 8-7] |
| 119 | Cc1ccc([C@@H](C)OC[C@H](O)CNC(C)(C)Cc2cccc3ccccc23)c2c1O[C@@H]1[C@@H](C(=O)O)[C@H]21 [Example 8-9] |
| 15 | Cc1ccc([C@@H](C)OC[C@H](O)CNC(C)(C)Cc2ccc3c(c2)CCC3)c2c1O[C@@H]1[C@@H](C(=O)O)[C@H]21 [Example 8-10] |
| 50 | Cc1ccc([C@@H](C)OC[C@H](O)CNC(C)(C)Cc2ccc3c(c2)OCO3)c2c1O[C@@H]1[C@@H](C(=O)O)[C@H]21 [Example 8-11] |
| 30 | COc1ccc(CC(C)(C)NC[C@@H](O)CO[C@H](C)c2ccc(C)c3c2[C@@H]2[C@H](O3)[C@H]2C(=O)O)c(F)c1 [Example 8-14] |
| 14 | Cc1ccc([C@@H](C)OC[C@H](O)CNC(C)(C)Cc2ccc(Cl)c(Cl)c2)c2c1O[C@@H]1[C@@H](C(=O)O)[C@H]21 [Example 8-15] |

| IC50 [nM] | Structure (SMILES) |
| --- | --- |
| 29 | Cc1ccc([C@@H](C)OC[C@H](O)CNC(C)(C)CCCc2ccccc2)c2c1O[C@@H]1[C@@H](C(=O)O)[C@H]21 [Example 8-16] |
| 90 | Cc1ccc([C@@H](C)OC[C@H](O)CNC(C)(C)CCOc2ccccc2)c2c1O[C@@H]1[C@@H](C(=O)O)[C@H]21 [Example 8-17] |
| 138 | Cc1ccc([C@@H](C)OC[C@H](O)CNC(C)(C)Cc2ccc(F)c(F)c2)c2c1O[C@@H]1[C@@H](C(=O)O)[C@H]21 [Example 8-19] |
| 99 | Cc1ccc([C@@H](C)OC[C@H](O)CNC(C)(C)Cc2cc(F)c(F)cc2F)c2c1O[C@@H]1[C@@H](C(=O)O)[C@H]21 [Example 8-21] |
| 210 | Cc1ccc([C@@H](C)OC[C@H](O)CNC(C)(C)Cc2c(F)cc(F)cc2F)c2c1O[C@@H]1[C@@H](C(=O)O)[C@H]21 [Example 8-22] |
| 40 | CSc1ccc(CC(C)(C)NC[C@@H](O)CO[C@H](C)c2ccc(C)c3c2C2[C@H](O3)[C@H]2C(=O)O)cc1 (stereo partly drawn) [Example 8-23] |
| 460 | Cc1ccc([C@@H](C)OC[C@H](O)CNC(C)(C)Cc2ccc3ncccc3c2)c2c1O[C@H]1C2[C@@H]1C(=O)O (stereo partly drawn) [Example 8-25] |
| 21 | Cc1ccc([C@@H](C)OC[C@H](O)CNC(C)(C)Cc2ccc3c(c2)CCS3)c2c1O[C@@H]1[C@@H](C(=O)O)[C@H]21 [Example 8-26] |
| > 10000 | Cc1ccc([C@@H](C)OC[C@H](O)CNC(C)(C)Cc2ccc3c(c2)CCS3(=O)=O)c2c1O[C@@H]1[C@@H](C(=O)O)[C@H]21 [Example 8-27] |
| 22 | COc1ccc(CC(C)(C)NC[C@@H](O)CO[C@H](C)c2ccc(C)c3c2[C@@H]2[C@H](O3)[C@H]2C(=O)O)c(Cl)c1 [Example 8-28] |
| 500 | Cc1ccc([C@@H](C)OC[C@H](O)CNC(C)(C)CSCc2ccccc2)c2c1O[C@@H]1[C@@H](C(=O)O)[C@H]21 [Example 8-29] |
| 50 | Cc1ccc([C@@H](C)OC[C@H](O)CNC(C)(C)CCSc2ccccc2)c2c1O[C@@H]1[C@@H](C(=O)O)[C@H]21 [Example 8-30] |
| 65 | Cc1ccc([C@@H](C)OC[C@H](O)CNC(C)(C)CCSc2ccc(F)cc2)c2c1O[C@@H]1[C@@H](C(=O)O)[C@H]21 [Example 8-31] |
| 1410 | Cc1ccc([C@@H](C)OC[C@H](O)CNC(C)(C)CSc2ccc(F)cc2)c2c1O[C@@H]1[C@@H](C(=O)O)[C@H]21 [Example 8-32] |
| 30 | CSc1ccc(CC(C)(C)NC[C@@H](O)CO[C@H](C)c2ccc(C)c3c2[C@@H]2[C@H](O3)[C@H]2C(=O)O)cc1Cl [Example 8-33] |
| 82 | CSc1ccc(CC(C)(C)NC[C@@H](O)CO[C@H](C)c2ccc(C)c3c2[C@@H]2[C@H](O3)[C@H]2C(=O)O)cc1C [Example 8-34] |
| 22 | Cc1ccc([C@@H](C)OC[C@H](O)CNC(C)(C)Cc2ccc3ccccc3c2)c2c1O[C@H]1[C@H](C(=O)O)[C@@H]21 [Example 9-1] |

| Structure (SMILES) | IC50 [nM] |
| --- | --- |
| Cc1ccc([C@@H](C)OC[C@H](O)CNC(C)(C)Cc2ccc(Cl)c(F)c2)c2c1O[C@@H]1[C@@H](C(=O)O)[C@H]21 [Example 8-2] | 58.5 |
| Cc1ccc([C@@H](C)OC[C@H](O)CNC(C)(C)CC2Cc3ccccc3C2)c2c1O[C@@H]1[C@@H](C(=O)O)[C@H]21 [Example 8-3] | 20 |
| Cc1ccc([C@@H](C)OC[C@H](O)CN2CCCC2Cc2ccccc2)c2c1O[C@@H]1[C@@H](C(=O)O)[C@H]21 (stereo partly drawn) [Example 8-8] | 489 |
| Cc1ccc([C@@H](C)OC[C@H](O)CNC(C)(C)Cc2ccc3sccc3c2)c2c1O[C@@H]1[C@@H](C(=O)O)[C@H]21 [Example 8-12] | 10 |
| Cc1ccc([C@@H](C)OC[C@H](O)CNC(C)(C)Cc2ccc3c(c2)OCCO3)c2c1O[C@@H]1[C@@H](C(=O)O)[C@H]21 [Example 8-13] | 22 |
| Cc1ccc([C@@H](C)OC[C@H](O)CN2CCCC2(C)Cc2ccccc2)c2c1O[C@@H]1[C@@H](C(=O)O)[C@H]21 (stereo partly drawn) [Example 8-18] | 1330 |
| Cc1ccc([C@@H](C)OC[C@H](O)CNC(C)(C)Cc2ccc(Cl)c(F)c2)c2c1O[C@H]1[C@H](C(=O)O)[C@@H]21 [Example 9-2] | 78 |
| Cc1ccc([C@@H](C)OC[C@H](O)CNC(C)(C)CC2Cc3ccccc3C2)c2c1O[C@H]1[C@H](C(=O)O)[C@@H]21 [Example 9-3] | 46 |
